“And” between values parts separate entries of the source, which are not always exact repeats. Equal entries are not always repeated.
System: Tetrahymena pyriformis
Assay: 48 h IGC50 (-log10 mol/L); higher = more toxic

SMILES | 48 h IGC50 (-log10 mol/L)
O=C(O)c1ccccc1Br | 2.53
CCC(=O)c1ccco1 | 2.23
CC(O)CBr (stereo not drawn) | 1.81
C=CC(=O)OC | 3.55
CCCC(=O)NN | 2.03
O=[N+]([O-])c1cc(F)ccc1F | 3.33
CCC(N)=O | 0.91
CCCCCCC(O)CC (stereo not drawn) | 3.36
CCCOc1ccc(O)cc1 | 3.52
Nc1c([N+](=O)[O-])cccc1[N+](=O)[O-] | 3.84
CCOC(=O)CBr | 5.68
OCc1cc(Br)ccc1O | 3.34
N#CCc1ccc([N+](=O)[O-])cc1 | 3.13
Cc1cc(N)c([N+](=O)[O-])cc1C | 3.45
N#CCCC#N | 1.18
CCCCC(O)CC (stereo not drawn) | 2.51
Fc1ccc(-c2ccccc2)cc1 | 3.53
S=C=NCCCN=C=S | 5.72 and 5.74
O=Cc1ccc(O)c2ccccc12 | 4.05
Cc1cc(N)ncc1[N+](=O)[O-] | 3.37
O=[N+]([O-])c1cccc(CO)c1 | 2.78
O=Cc1ccc(Cl)o1 | 3.07
OCc1ccc(Cl)cc1 | 3.25
C/C=C/COC(C)=O | 2.13

SMILES | 48 h IGC50 (-log10 mol/L)
CC(C)c1ccc(Br)cc1 | 3.85
Cc1ccc(O)c([N+](=O)[O-])c1 | 3.57
NC(=O)c1cc(Cl)ccc1[N+](=O)[O-] | 2.68
CC(C)(C)CCO | 2.26
C=COC(=O)c1ccc(C(C)(C)C)cc1 | 4.57
CCCCOC(=O)CC | 3.17
CC(=O)c1ccc[nH]1 | 2.09
OC(CBr)CBr | 3.57
CCCCCCCCCC(C)O (stereo not drawn) | 4.58
ClCC=CCCl | 4.02
CCCCCCC(=O)CCCCCC | 4.52
CCc1cccc2ccccc12 | 3.89
CCC(CC)COC(C)=O | 2.88
COc1cc(Cl)cc(Cl)c1 | 3.93
N#Cc1cccnc1 | 2.26
Fc1nc(F)c(F)c(Br)c1F | 2.87
Cc1cc(Cl)ncc1[N+](=O)[O-] | 3.42
CCCCCC#CC(=O)O | 2.94
O=C(CO)c1ccccc1 | 3.08
C/C(=N\O)C(=O)c1ccccc1 | 2.96
CCOc1cc(O)ccc1OC | 2.7
Cc1[nH]cnc1C=O | 2.07
C=COC(=O)CCC | 2.62
C/C=C/C(=O)OCCCC | 2.84

SMILES | 48 h IGC50 (-log10 mol/L)
c1ccc2ccccc2c1 | 2.88
CC/C=C/CC(=O)O | 2.78
O=C(O)c1cc(Br)cc(Br)c1 | 3.46
Cc1cc(O)ccc1O | 4.86
O=[N+]([O-])c1cccc(F)c1 | 3.2
COC(=O)c1ccccc1 | 3.23
CC(=O)C(Cl)C(C)=O | 4.44
N#CCCCCCCCl | 3.29
CCC#CC(C)=O | 4.32
COC(=O)C(C)(C)C | 1.72
Cc1cc2ccccc2n1C | 3.84
O=Cc1cc(O)ccc1O | 3.28
COc1ccc(N)cc1O | 3.45
Nc1c(Br)cc(Cl)cc1Br | 4.52
Oc1ccccc1Cc1ccccc1 | 4.31
CCCCCCCCCCC(=O)OC | 4.42
Nc1c(Br)cc([N+](=O)[O-])cc1[N+](=O)[O-] | 4.24
C=CCS(=O)(=O)c1ccccc1 | 3.31
N#CCCCc1ccccc1 | 3.15
O=C(NO)c1ccccc1O | 3.38
Cc1ccc(Cl)c(O)c1 | 3.54
CC(C)c1ccccc1N | 3.12
CC(=O)OC(C)C | 1.41
CCCCCC#CCCO | 3.34

SMILES | 48 h IGC50 (-log10 mol/L)
Oc1ccc(Br)cc1 | 3.68
CCCCC(=O)Cl | 2.65
O=C(O)CCCCBr | 2.31
CCN(CC)CCO | 1.5
CC(=O)c1ccc(C#N)cc1 | 2.63
N#Cc1ccc(-c2ccccc2)cc1 | 4.24
CCCCCCCCCCOC(=O)CC#N | 4.7
CCS(=O)(=O)c1ccccc1 | 2.21
OC(c1ccccc1)c1ccccc1 | 3.5
O=[N+]([O-])c1c(F)cc(F)c(F)c1F | 4.87
O=C(Oc1ccccc1)c1ccc(O)cc1 | 4.37
C=CS(=O)(=O)c1ccccc1 | 4.28
O=[N+]([O-])c1ccc(Br)nc1 | 4.07
CC(C)CCN | 2.42
CCCCCC1CCC(=O)O1 (stereo not drawn) | 3.01
COC(=O)c1cc(O)cc(O)c1 | 2.86
O=[N+]([O-])c1cc(Br)c(O)c(Br)c1 | 4.36
CCCCCC/C=C/C=O | 4.6
CC(C)CCO | 1.96
OCCCBr | 2.07
CC(C#N)c1ccccc1 (stereo not drawn) | 3.01
OCCC(c1ccccc1)c1ccccc1 | 4.04
Oc1ccc(Cl)c(Cl)c1 | 4.75
COc1ccc([N+](=O)[O-])cc1 | 3.54

SMILES | 48 h IGC50 (-log10 mol/L)
CC#CC(=O)OC | 3.4
CCOS(=O)(=O)OCC | 2.3
N#Cc1ccncc1 | 2.18
O=Cc1cc2ccccc2c2ccccc12 | 4.71
CCCCCCC(Br)C(=O)OCC (stereo not drawn) | 4.5
N#Cc1cccc(Cl)c1 | 2.94
C=C(C=O)CC | 3.91
CC=CCO | 1.53
CCOC(=O)C(C)Cl (stereo not drawn) | 2.57
CCCCC/C=C/CCC=O | 4.21
O=[N+]([O-])c1ccc(Cl)nc1 | 3.8
CC(CCO)c1ccccc1 (stereo not drawn) | 3.01
COC(=O)c1ccc(Br)cc1 | 3.6
Cc1cccc(N)c1 | 2.72
CC1=CC(=O)c2c(O)cccc2C1=O | 5.2
Nc1cc([N+](=O)[O-])ccc1Cl | 3.6
O=Cc1cccc(Br)c1 | 3.51
Cc1ccc(Cl)cc1N | 3.5
O=[N+]([O-])c1ccccc1F | 3.23
O=Cc1cc(C(F)(F)F)cc(Cl)c1F | 4.24
NC(=O)CCl | 3.04
CCCCCOC(C)=O | 3.16
